Results from ChEMBL document CHEMBL4311957, “Recent advances in natural antifungal flavonoids and their derivatives” (Bioorg Med Chem Lett, 2019).
Values after ≈ are worked out from the molar mass of the structure shown. One block for each molecule: values may come before it.

Legend:
Trichophyton rubrum [1] = assay: Antifungal activity against Trichophyton rubrum; format: functional
Aspergillus fumigatus [2] = assay: Antifungal activity against Aspergillus fumigatus; format: functional
Cryptococcus neoformans [3] = assay: Antifungal activity against Cryptococcus neoformans; format: functional
Nakaseomyces glabratus [4] = assay: Antifungal activity against Candida glabrata 510 by microdilution method; format: functional
Candida albicans [5] = assay: Antifungal activity against Candida albicans 53 by microdilution method; format: functional
Nakaseomyces glabratus [6] = assay: Antifungal activity against Candida glabrata 531 by microdilution method; format: functional
Nakaseomyces glabratus [7] = assay: Antifungal activity against Candida glabrata 493 by microdilution method; format: functional
Nakaseomyces glabratus [8] = assay: Antifungal activity against Candida glabrata 587 by microdilution method; format: functional
Nakaseomyces glabratus [9] = assay: Antifungal activity against Candida glabrata 507 by microdilution method; format: functional
Candida albicans [10] = assay: Antifungal activity against Candida albicans 501 by microdilution method; format: functional
Candida albicans [11] = assay: Antifungal activity against Candida albicans 498 by microdilution method; format: functional
Candida parapsilosis [12] = assay: Antifungal activity against Candida parapsilosis 96 by microdilution method; format: functional; conditions: Lodderomyces parapsilosis
Nakaseomyces glabratus [13] = assay: Antifungal activity against Candida glabrata 482 by microdilution method; format: functional
Pichia kudriavzevii = assay: Antifungal activity against Candida krusei 168 by microdilution method; format: functional
Candida tropicalis = assay: Antifungal activity against Candida tropicalis 166 by microdilution method; format: functional
Candida albicans [14] = assay: Antifungal activity against Candida albicans ATCC 10231 by microdilution method; format: functional
Trichophyton rubrum [15] = assay: Antifungal activity against Trichophyton rubrum deltaTruMDR2 by CLSI-based microdilution method; format: functional
Trichophyton rubrum [16] = assay: Antifungal activity against Trichophyton rubrum ATCC MYA3108 by CLSI-based microdilution method; format: functional
Candida parapsilosis [17] = assay: Antifungal activity against Candida parapsilosis; format: functional; conditions: Lodderomyces parapsilosis
Aspergillus fumigatus [18] = assay: Fungicidal activity against Aspergillus fumigatus ATTC 26934 after 48 hrs; format: functional; conditions: ATTC 26934, 48 h
Candida albicans [19] = assay: Antifungal activity against Candida albicans; format: functional, organism-based
Candida albicans [20] = assay: Antifungal activity against Candida albicans after 48 hrs by broth micro dilution method; format: functional
Cryptococcus neoformans [21] = assay: Antifungal activity against Cryptococcus neoformans after 48 hrs by broth micro dilution method; format: functional
Candida parapsilosis [22] = assay: Antifungal activity against Candida parapsilosis after 48 hrs by broth micro dilution method; format: functional; conditions: Lodderomyces parapsilosis

- MIC (Trichophyton rubrum [15]): > 1000 µg/mL
- MIC (Trichophyton rubrum [16]): > 1000 µg/mL
Compound: O=c1c(-c2ccc(O)cc2)coc2cc(O)cc(O)c12 [GENISTEIN]

- MIC (Nakaseomyces glabratus [4]): 31.2 µg/mL (≈ 109 µM)
- MIC (Candida albicans [5]): > 83 µg/mL
- MIC (Nakaseomyces glabratus [6]): 31.2 µg/mL (≈ 109 µM)
- MIC (Nakaseomyces glabratus [7]): 31.2 µg/mL (≈ 109 µM)
- MIC (Nakaseomyces glabratus [8]): 31.2 µg/mL (≈ 109 µM)
- MIC (Nakaseomyces glabratus [9]): 31.2 µg/mL (≈ 109 µM)
- MIC (Candida albicans [10]): > 83 µg/mL
- MIC (Candida albicans [19]): 256 to 512 µg/mL (≈ 894 to 1790 µM)
- MIC (Candida albicans [11]): > 83 µg/mL
- MIC (Candida parapsilosis [12]): > 83 µg/mL
- MIC (Nakaseomyces glabratus [13]): 31.2 µg/mL (≈ 109 µM)
- MIC (Pichia kudriavzevii): > 83 µg/mL
- MIC (Candida tropicalis): > 83 µg/mL
- MIC (Candida albicans [14]): > 83 µg/mL
Compound: O=c1c(O)c(-c2ccc(O)cc2)oc2cc(O)cc(O)c12 [KAEMPFEROL]

Further lines, the molecule ahead of its results:

Compound: Nc1ccccc1C(=O)/C=C/c1cccc(F)c1
- MIC (Trichophyton rubrum [1]): 0.5 µg/mL (≈ 2.07 µM)

Compound: Cc1c(O)c2c(c(C(=O)/C=C/c3ccccc3)c1O)OC(C)(C)C=C2
- MIC (Aspergillus fumigatus [2]): 16 µg/mL (≈ 47.6 µM)
- MIC (Cryptococcus neoformans [3]): 4 to 8 µg/mL (≈ 11.9 to 23.8 µM)

Compound: C[C@@H]1O[C@@H](Oc2c(-c3cc(O)c(O)c(O)c3)oc3cc(O)cc(O)c3c2=O)[C@H](O)[C@H](O)[C@H]1O
- MIC (Nakaseomyces glabratus [4]): 3.9 to 7.8 µg/mL (≈ 8.4 to 16.8 µM)
- MIC (Candida albicans [5]): > 83 µg/mL
- MIC (Nakaseomyces glabratus [6]): 3.9 to 7.8 µg/mL (≈ 8.4 to 16.8 µM)
- MIC (Nakaseomyces glabratus [7]): 3.9 to 7.8 µg/mL (≈ 8.4 to 16.8 µM)
- MIC (Nakaseomyces glabratus [8]): 3.9 to 7.8 µg/mL (≈ 8.4 to 16.8 µM)
- MIC (Nakaseomyces glabratus [9]): 3.9 to 7.8 µg/mL (≈ 8.4 to 16.8 µM)
- MIC (Candida albicans [10]): > 83 µg/mL
- MIC (Candida albicans [11]): > 83 µg/mL
- MIC (Candida parapsilosis [12]): > 83 µg/mL
- MIC (Nakaseomyces glabratus [13]): 3.9 to 7.8 µg/mL (≈ 8.4 to 16.8 µM)
- MIC (Pichia kudriavzevii): > 83 µg/mL
- MIC (Candida tropicalis): > 83 µg/mL
- MIC (Candida albicans [14]): > 83 µg/mL

Compound: O=c1c(O[C@@H]2O[C@@H](CO)[C@H](O)[C@H]2O)c(-c2ccc(O)c(O)c2)oc2cc(O)cc(O)c12 [AVICULARIN]
- MIC (Candida parapsilosis [17]): 8 to 32 µg/mL (≈ 18.4 to 73.7 µM)
- MIC (Aspergillus fumigatus [18]): 2 to 16 µg/mL (≈ 4.6 to 36.8 µM)
- MIC (Candida albicans [19]): 2 to 32 µg/mL (≈ 4.6 to 73.7 µM)

Compound: O=C(O)[C@H]1O[C@@H](Oc2cc(O)c3c(=O)cc(-c4ccc(O)cc4)oc3c2)[C@H](O)[C@@H](O)[C@@H]1O
- MIC (Candida albicans [20]): > 256 µg/mL
- MIC (Cryptococcus neoformans [21]): 128 µg/mL (≈ 287 µM)
- MIC (Candida parapsilosis [22]): 64 µg/mL (≈ 143 µM)
